# Data from patent US20260224596A1, “Phosphate Prodrugs of Cannabinoids” (Emory University, priority 2023, published 2026).
# Where a name gives a salt, the structure may show the parent alone.
# Assays:
# Plasma stability assay = type: in vitro ADME, human; conditions: for half-life at 3 μM: read-out: T½ in human plasma; for Δ^8-THC detected in plasma: release of parent Δ^8-THC in human plasma incubation
# Procedure: As used herein, the “human plasma stability, T1/2” is determined according to the procedure described in Example 10.
# Procaine and Procainamide were purchased from Sigma-Aldrich. Human plasma was obtained from BioIVT (Cat. No. […]2N) and 1× Dulbecco's PBS (pH 7.4, Gibco) was obtained from Thermos Fischer. Stock solutions were prepared in 100% DMSO, and suitable dilutions of target analytes were prepared in methanol for method development.
# Test compounds were dissolved in DMSO to make a stock solution of 10 mM and then diluted to 500 μM in buffer (or 70% MeOH). Human plasma was thawed at ambient temperature and is aliquoted (994.0 μL) to a 1.5 mL Eppendorf tube in duplicates (A and B) for each compound. Plasma was incubated at 37° C. for 10 minutes in an incubator shaker at 150 rpm; the reaction was initiated by the addition of the test compound (6.0 μL) and vortex mixing. The total reaction volume was 1000 μL where the final organic solvent concentrations were 0.6% MeOH and 0.03% DMSO. The spiked plasma samples were incubated at 37° C. for […]. The reactions were terminated at time points 0, 15, 30, 60, and 120 min by taking a 100 μL aliquot from the test incubation mixture and immediately quenching it in ice-cold mathanol containing internal standard (150 μL with 2 μM ISTD), followed by a quick vortex mixing. In addition, matrix blank was prepared by adding methanol solutions containing ISTD to plasma samples without any of the analytes or control compounds. Also, an additional tube was made to measure compound degradation in PBS buffer. The samples were centrifuged at 15,000 rpm for 25 min at 4° C. The supernatant was transferred to an LC-MS vial for analysis by LC/MS-MS. Each time point was run in duplicates followed by in-between blank washes to avoid the carryover and to equilibrate the column. Half-life (T1/2) was calculated using the data obtained from LC-MS/MS and by plotting ln (% remaining of the parent prodrug) versus time and performing linear regression to determine slope. Slope=−k and T1/2=0.693/k for first-order kinetics. Procaine (poor plasma stability) was used as a positive control at a final concentration of 3 μM. The positive control was run in parallel to test the systems for competency.
# An exemplary experimental setup is described below. Conical polypropylene microcentrifuge tubes (1.5 mL) were labelled in duplicate for 0, 15, 30, 60, and 120 min for each compound being tested. • Example: No. of tubes prepared per Test Compound (TC): • Test compound: 994 μL human plasma+6.0 μL TC (Vial A) • 994 μL human plasma+6.0 μL TC (Vial B) • Positive control: 596 μL human plasma+3.6 μL (procaine) • Matrix blank: 500 μL PBS buffer+100 μL human plasma • Negative control: 142 μL PBS buffer+0.9 μL TC1 • Quenching mixture: 150 μL methanol with ISID (2 μM) • Final volume after quenching: 250 μL (100 μL from the incubation mixture and 150 μL from the quenching mixture; ISTD conc. 1.2 μM)
# [1] = Nephelometry solubility in 1% DMSO; type: physicochemical; conditions: PBS pH 7.0-7.3 with 1% DMSO, 25° C.; for solubility at 90 min: Dulbecco's phosphate-buffered saline with 1% DMSO, aqueous buffer, kinetic from dmso stock
# Procedure: Nephelometry experiments were performed using untreated CORNING® COSTAR® 96-well black polystyrene plates with clear flat bottoms. Sample stock solutions and serial dilutions were prepared with DRISOLV® DMSO purchased from MilliporeSigma. […] Nephelometry data was obtained using a NEPHELOSTAR® microplate reader and processed with MARS data analysis software from BMG LabTech.
# Tested compounds were dissolved in 100% DMSO to make stock solutions of specified concentrations, ranging from 10 mM minimum up to 50 mM maximum. The sample then underwent serial dilution in a 96-well plate (CORNING® COSTAR®). Well A1 of the plate contained 100% DMSO. […] Using a 12-channel multichannel pipette, 2.5 μL of sample from row A was transferred to each well in row B through row H of the plate. Next, 30 μL of PBS (pH=7.0-7.3) was added to row B through row H, providing each well with 32.5 μL. The plate was then incubated for 30 sec with shaking. Finally. 217.5 μL of PBS buffer was added to row B through row H, and the entire plate was incubated with shaking at 25° C. for 90 min. The final volume of DMSO in actual experiments with PBS buffer was 1% throughout the plate. After 90 min. the 96-well plate was analyzed with a NEPHELOSTAR® instrument and the data was processed with MARS data analysis software.
# [2] = Liver microsome stability assay (HLM); type: in vitro ADME; conditions: human liver microsomes, 3 μM test compound, NADPH, 0-30 min, LC-MS/MS; for half-life at 3 μM: pH 7.4, read-out: T½ in HLM
# Procedure: As used herein, the “human liver microsomes stability, T1/2” is determined according to the procedure described in Example 9.
# Human and mouse liver microsomes were purchased from Xenotech at 20 mg/mL. NADPH (Sigma-Aldrich) 10 mM stocks were prepared in deionized water.
# Test compounds and positive controls were dissolved in 100% DMSO to make 10 mM stock solutions. Verapamil (Sigma-Aldrich) and diphenhydramine (Sigma-Aldrich) were used as positive controls for both human liver microsomes (HLM) and mouse liver microsomes (MLM). The 10 mM stock solutions of test and control compounds were further diluted in potassium phosphate buffer (100 mM, pH 7.4) to 500 μM to ensure that the organic solvent content was <0.2%. The liver microsome (HLM or MLM) assay was prepared in a 1.5 mL Eppendorf tube with a final volume of 1100 μL for duplicate runs. Each reaction contained phosphate buffer (928.4 μL), liver microsomes (55 μL), and test compound (6.6 μL of 500 μM), resulting in a final concentration of 3 μM for the test compound. The reaction was initiated with 110 μL of 10 mM NADPH. Aliquots (100 μL) were removed in duplicate at 0, 5, 10, 15, and 30 min and quenched in […] of 100% cold methanol which contained internal standard (ISTD: d5-7-ethoxy coumarin 2 μM). The aliquots were centrifuged at 12,000g for 5 min, and the supernatant was transferred and placed in an LC-MS vial. Each time point was assessed by LC-MS/MS, and the area under the m/z curve (AUC), based on the MRM transition, was integrated w.r.t the ISTD. Positive controls were conducted at a final volume of 550 μL to enable a single run for each time point. Negative controls in the absence of NADPH were performed with the test and control compounds, respectively, at a final volume of 150 μL and measured at the most prolonged time point. Control compounds were processed and analyzed like test compounds. Each time point was run in triplicates on LC-MS/MS followed by in-between blank washes to avoid the carryover and to equilibrate the column. Half-life (T1/2) was calculated using the data obtained from LC-MS/MS and by plotting ln (% remaining of the parent prodrug) versus time and performing linear regression to determine slope. Slope=−k and T1/2=0.693/k for first-order kinetics.
# [3] = human plasma, 37° C., time points 0-120 min, LC-MS/MS
Structure (SMILES),T½ in human plasma (Plasma stability assay; [3]),Solubility in 1% DMSO ([1]; 90 min),T½ in HLM [2],half-life at 3 μM [2],half-life at 3 μM (Plasma stability assay; [3]),Δ^8-THC detected in plasma (Plasma stability assay),solubility at 90 min [1]
"CCCCCc1cc(O)c2c(c1)OC(C)(C)[C@@H]1CC=C(C)C[C@@H]21 (relative stereo) [Δ^8-THC, (−)trans-Δ^8-THC, reference compound]",1440 ± 360 min,15.93 ± 0.8 µM,5.51 min,–,–,–,–
"CCCCCc1cc(OC(=O)OCCCOP(=O)(O)O)c2c(c1)OC(C)(C)[C@@H]1CC=C(C)C[C@@H]21 [Compound 11a, 3-(phosphonooxy)propyl ((6aR,10aR)-6,6,9-trimethyl-3-pentyl-6a,7,10,10a-tetrahydro-6H-benzo[c]chromen-1-yl) carbonate di-ammonium salt]",–,–,–,18.8 min,–,–,–
"CCCCCc1cc(OC(=O)OCCCCOP(=O)(O)O)c2c(c1)OC(C)(C)[C@@H]1CC=C(C)C[C@@H]21.N.N [Compound 11b, 4-(phosphonooxy)butyl ((6aR,10aR)-6,6,9-trimethyl-3-pentyl-6a,7,10,10a-tetrahydro-6H-benzo[c]chromen-1-yl) carbonate di-ammonium salt]",–,–,–,17.2 min,> 120 min,Yes,> 500 µM
"CCCCCc1cc(OC(=O)CCCOP(=O)(O)O)c2c(c1)OC(C)(C)[C@@H]1CC=C(C)C[C@@H]21.N.N [Compound 16a, (6aR,10aR)-6,6,9-trimethyl-3-pentyl-6a,7,10,10a-tetrahydro-6H-benzo[c]chromen-1-yl 4-(phosphonooxy)butanoate di-ammonium salt]",–,–,–,51.3 min,> 120 min,Yes,> 500 µM
"CCCCCc1cc(OC(=O)CCCCOP(=O)(O)O)c2c(c1)OC(C)(C)[C@@H]1CC=C(C)C[C@@H]21.N.N [Compound 16b, (6aR,10aR)-6,6,9-trimethyl-3-pentyl-6a,7,10,10a-tetrahydro-6H-benzo[c]chromen-1-yl 5-(phosphonooxy)pentanoate di-ammonium salt]",–,–,–,40.1 min,–,–,> 500 µM
"CCCCCc1cc(OC(=O)NCCOP(=O)(O)O)c2c(c1)OC(C)(C)[C@@H]1CC=C(C)C[C@@H]21.N.N [Compound 21a, (6aR,10aR)-6,6,9-trimethyl-3-pentyl-6a,7,10,10a-tetrahydro-6H-benzo[c]chromen-1-yl (2-(phosphonooxy)ethyl)carbamate di-ammonium salt]",–,–,–,5.6 min,–,–,> 500 µM
"CCCCCc1cc(OC(=O)NCCCOP(=O)(O)O)c2c(c1)OC(C)(C)[C@@H]1CC=C(C)C[C@@H]21.N.N [Compound 21b, (6aR,10aR)-6,6,9-trimethyl-3-pentyl-6a,7,10,10a-tetrahydro-6H-benzo[c]chromen-1-yl (3-(phosphonooxy)propyl)carbamate di-ammonium salt]",–,–,–,12.5 min,> 120 min,Yes,> 500 µM
